Results taken from ChEMBL document CHEMBL3779775, “Synthesis, anti-inflammatory, analgesic, COX-1/2 inhibition activities and molecular docking study of pyrazoline derivatives” (Bioorg Med Chem, 2016).
Activity calls are given as the source filed them. The calls are words filed in the database; no cut-off is given here.

Key:
Rattus norvegicus [1] = assay: Antiinflammatory activity in ip dosed carrageenan induced Sprague-Dawley rat paw oedema model assessed as reduction of paw volume measured after 2 hrs by plethysmometer method; assay type: functional
Mus musculus [2] = assay: Analgesic activity in ip dosed albino Swiss mouse assessed as decrease in licking or blowing time administered as single dose measured after 1 hr by hot plate test; assay type: functional
Rattus norvegicus [3] = assay: Ulcerogenicity in ip dosed fasted Sprague-Dawley rat after 24 hrs by hand lens; assay type: toxicity, organism-based; conditions: in vivo
[4] = target: T1, Prostaglandin G/H synthase 1 (Ovis aries, UniProt P05979); assay: Inhibition of ovine COX-1 using arachidonic acid as substrate assessed as production of […] preincubated for 5 mins followed by addition of substrate measured after 2 mins by EIA
T1 sequence (P05979 whole entry): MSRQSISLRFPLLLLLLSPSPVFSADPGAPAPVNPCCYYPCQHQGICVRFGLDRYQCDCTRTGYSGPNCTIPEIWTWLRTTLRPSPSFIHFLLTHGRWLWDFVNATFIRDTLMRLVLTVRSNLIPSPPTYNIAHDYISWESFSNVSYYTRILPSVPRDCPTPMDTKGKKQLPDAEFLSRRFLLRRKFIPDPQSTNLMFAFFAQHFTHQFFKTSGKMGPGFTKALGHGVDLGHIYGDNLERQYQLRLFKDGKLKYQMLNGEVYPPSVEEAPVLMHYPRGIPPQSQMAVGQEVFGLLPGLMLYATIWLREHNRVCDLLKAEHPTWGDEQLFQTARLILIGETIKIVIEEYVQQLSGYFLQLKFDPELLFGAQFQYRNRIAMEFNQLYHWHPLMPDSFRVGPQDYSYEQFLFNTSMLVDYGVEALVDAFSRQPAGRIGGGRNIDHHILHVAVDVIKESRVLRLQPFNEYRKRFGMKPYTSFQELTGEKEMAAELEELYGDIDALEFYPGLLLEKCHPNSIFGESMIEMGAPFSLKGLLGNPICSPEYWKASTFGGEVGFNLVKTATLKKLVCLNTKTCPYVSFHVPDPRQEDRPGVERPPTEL

Rattus norvegicus [5] = assay: Antiinflammatory activity in carrageenan induced Sprague-Dawley rat paw oedema model assessed as reduction of paw volume at 200 mg/kg, ip measured after 2 hrs by plethysmometer method; assay type: functional, organism-based
Mus musculus [6] = assay: Analgesic activity in albino Swiss mouse assessed as decrease in licking or blowing time at 200 mg/kg, ip administered as single dose measured after 1 hr by hot plate test; assay type: functional, organism-based

## O=C(CCl)N1N=C(c2ccc(F)cc2)CC1c1ccc([N+](=O)[O-])cc1 (stereo not drawn)
Rattus norvegicus [1]
  ED50: 98.4 mg/kg
Mus musculus [2]
  ED50: 68.2 mg/kg
Rattus norvegicus [3]
  Activity: > 200 mg/kg

## CC(=O)Nc1ccc(C2=NN(C(C)=O)C(c3ccc([N+](=O)[O-])cc3)C2)cc1 (stereo not drawn)
Mus musculus [2]
  ED50: 48.1 mg/kg
Rattus norvegicus [3]
  Activity: > 200 mg/kg
[4]
  IC50: > 100 µM

## O=C(CCl)Nc1ccc(C2=NN(C(=O)CCl)C(c3ccc([N+](=O)[O-])cc3)C2)cc1 (stereo not drawn)
Rattus norvegicus [1]
  ED50: 90.3 mg/kg
Mus musculus [2]
  ED50: 81.9 mg/kg
Rattus norvegicus [3]
  Activity: > 200 mg/kg

## Nc1ccc(C2=NNC(c3ccc([N+](=O)[O-])cc3)C2)cc1 (stereo not drawn)
Rattus norvegicus [5]
  Activity: inactive
Mus musculus [6]
  Activity: inactive

## CC(=O)Nc1ccc(C2=NN(c3ccccc3)C(c3ccc([N+](=O)[O-])cc3)C2)cc1 (stereo not drawn)
Rattus norvegicus [1]
  ED50: 91.3 mg/kg
Mus musculus [2]
  ED50: 75.2 mg/kg
Rattus norvegicus [3]
  Activity: > 200 mg/kg

## CC(=O)c1ccc(NCC(=O)N2N=C(c3ccc(Br)cc3)CC2c2ccc([N+](=O)[O-])cc2)cc1 (stereo not drawn)
Rattus norvegicus [1]
  ED50: 95.9 mg/kg
Mus musculus [2]
  ED50: 87.8 mg/kg
Rattus norvegicus [3]
  Activity: > 200 mg/kg

## CC(=O)Nc1ccc(C2=NN(c3ccccc3)C(c3ccc(Cl)cc3)C2)cc1 (stereo not drawn)
Rattus norvegicus [1]
  ED50: 74.2 mg/kg
Mus musculus [2]
  ED50: 49.6 mg/kg
Rattus norvegicus [3]
  Activity: > 200 mg/kg
[4]
  IC50: > 100 µM

## O=C(CO[N+](=O)[O-])N1N=C(c2ccccc2)CC1c1ccc([N+](=O)[O-])cc1 (stereo not drawn)
Rattus norvegicus [5]
  Activity: inactive
Mus musculus [6]
  Activity: inactive

## O=C(CCl)N1N=C(c2ccccc2)CC1c1ccc([N+](=O)[O-])cc1 (stereo not drawn)
Rattus norvegicus [5]
  Activity: inactive
Mus musculus [6]
  Activity: inactive

## O=[N+]([O-])c1ccc(C2CC(c3ccc(F)cc3)=NN2)cc1 (stereo not drawn)
Rattus norvegicus [1]
  ED50: 89.7 mg/kg
Mus musculus [2]
  ED50: 59.1 mg/kg
Rattus norvegicus [3]
  Activity: > 200 mg/kg

## Cc1ccc(-c2cc(C(F)(F)F)nn2-c2ccc(S(N)(=O)=O)cc2)cc1 [CELECOXIB]
Rattus norvegicus [1]
  ED50: 89 mg/kg
Mus musculus [2]
  ED50: 72 mg/kg
Rattus norvegicus [3]
  Activity: > 200 mg/kg

## CC(=O)c1ccc(NCC(=O)N2N=C(c3ccccc3)CC2c2ccc([N+](=O)[O-])cc2)cc1 (stereo not drawn)
Rattus norvegicus [1]
  ED50: 59.4 mg/kg
Mus musculus [2]
  ED50: 38.6 mg/kg
Rattus norvegicus [3]
  Activity: > 200 mg/kg
[4]
  IC50: > 100 µM

## Fc1ccc(C2=NNC(c3ccc(Cl)cc3)C2)cc1 (stereo not drawn)
Rattus norvegicus [5]
  Activity: inactive
Mus musculus [6]
  Activity: inactive

## O=C(CO[N+](=O)[O-])N1N=C(c2ccc(Br)cc2)CC1c1ccc(Cl)cc1 (stereo not drawn)
Rattus norvegicus [5]
  Activity: inactive
Mus musculus [6]
  Activity: inactive

## Nc1ccc(C2=NN(C(=O)CCl)C(c3ccc([N+](=O)[O-])cc3)C2)cc1 (stereo not drawn)
Rattus norvegicus [5]
  Activity: inactive
Mus musculus [6]
  Activity: inactive

## O=C(CCl)N1N=C(c2ccc(Br)cc2)CC1c1ccc([N+](=O)[O-])cc1 (stereo not drawn)
Rattus norvegicus [5]
  Activity: inactive
Mus musculus [6]
  Activity: inactive

## O=C(CO[N+](=O)[O-])N1N=C(c2ccc(F)cc2)CC1c1ccc([N+](=O)[O-])cc1 (stereo not drawn)
Rattus norvegicus [1]
  ED50: 65.3 mg/kg
Mus musculus [2]
  ED50: 55.1 mg/kg
Rattus norvegicus [3]
  Activity: > 200 mg/kg
[4]
  IC50: > 100 µM

## CC(=O)c1ccc(NCC(=O)N2N=C(c3ccc(F)cc3)CC2c2ccc([N+](=O)[O-])cc2)cc1 (stereo not drawn)
Rattus norvegicus [1]
  ED50: 73.2 mg/kg
Mus musculus [2]
  ED50: 49.4 mg/kg
Rattus norvegicus [3]
  Activity: > 200 mg/kg
[4]
  IC50: > 100 µM

## O=C(CO[N+](=O)[O-])N1N=C(c2ccc(Br)cc2)CC1c1ccc([N+](=O)[O-])cc1 (stereo not drawn)
Rattus norvegicus [5]
  Activity: inactive
Mus musculus [6]
  Activity: inactive
